{"source": "paper PMC12435690", "about": "“KYLO-0603, a novel liver-targeting, thyroid hormone receptor-β agonist for the inhibition of MASH progression” (PLOS One, 2025)", "origin": "cited, not measured here", "system": "THR-β over THR-α", "set-up": "method as in PMID 38771485, PMID 33306682, PMID 9653548, PMID 32098589", "conditions": "in vitro THR competition assays ref [28],[47],[48],[49]; cited from earlier work", "note": "Where “and” joins values, the source holds several entries; their conditions need not be identical. Equal entries are not always repeated."}
{"smiles": "CC(C)c1cc(Oc2c(Cl)cc(-n3nc(C#N)c(=O)[nH]c3=O)cc2Cl)n[nH]c1=O", "note": "[Resmetirom]", "values": [{"measurement": "selectivity ratio for THR-β over THR-α", "value": "12 and 17"}]}
